Test results published in patent US20050131463A1, “Perfusion chamber for recording evoked and spontaneous electrical activity from submerged acute brain slices” (priority 2003, published 2005).

Tested on: str. radiatum CA1 region of rat hippocampal slices (LTP)
Assay: LTP test (40 Hz theta burst tetanization) in submerged hippocampal slices, field EPSP recording in multi-chamber device
Type: cell-based
Conditions: 40 Hz×4×10 theta burst, p<0.01, 4 rats, 12 slices
Procedure: A twelve-chamber assembly of chambers according to the embodiment of the invention described in Example 1 is prepared for measurement of twelve slices simultaneously. Each chamber is prepared such that the top ends of the electrodes are placed 50 μm below the bottom net. Bipolar stimulation is utilized and the distance between electrodes is set to 100 μm. Such an assembly with fixed electrodes may be utilized for numerous experiments without readjustment of the electrodes. Individual chambers in the assembly may be replaced as necessary with new chambers. Electrophysiology experiments are performed on a 6-month old male rat. 400 μm hippocampal slices from the rat are prepared using a VIBROTOMETM (vibroslicer WPI; World Precision Instruments) to assure precise thickness. Slices were incubated for 2 hours at room temperature in a perfusion solution containing, in mM, 119 NaCl, 2.5 KCl, 2.5 CaCl2, 1.3 MgSO4, 1.25 NaH2PO4, 26.0 NaHCO3, 10 glucose and equilibrated with 95% O2 and 5% CO2 (pH 7.3-7.4) at room temperature. […] Simultaneous recording from the twelve slices is measured using electrophysiological software, […] […] 30 seconds after the single tetanus, baseline is continued to be collected as before and LTP was measured 60 minutes after tetanization. […] LOGEC 50 values are determined using Prizm4 software (Graphpad).

Compound: COc1ccc(C2CNC(=O)C2)cc1OC1CCCC1 (centres unmarked) [rolipram]
- % of facilitation of the LTP 60 minutes after tetanic stimulation (rolipram 1 μM in perfusion fluid): significant
- % of facilitation of the LTP 60 minutes after tetanic stimulation (rolipram 10 μM in perfusion fluid): significant
